In PMC7962642, “A Synergic Potential of Antimicrobial Peptides against Pseudomonas syringae pv. actinidiae” (Molecules, 2021):
Values after ≈ are worked out from the molar mass of the structure shown. Like-named read-outs stand apart in the source and are kept apart here. No end group written: not given here.

Columns and labels:
[1] = system: Psa strains; assay: Minimal inhibitory concentration (MIC), microplate growth in MHB; format: cell-based, Pseudomonas syringae pv. actinidiae
Method: (§1) All strains were obtained from stocks preserved at –80 °C and cultured in King’s B medium (protease peptone, 20.0 g; anhydrous K2HPO4, 1.5 g; glycerol, 10.0 mL; MgSO4·7H2O, 1.5 g; agar, […]; distilled water up to 1.0 L). Individual colonies of each strain were selected and re-streaked two times to ensure purity. Psa strains were isolated in different infected kiwifruit orchards between 2013 and 2017. CFBP7286 was used as Psa biovar 3 reference strain. For the antibiogram assays, pure colonies of all bacterial strains were grown overnight in Muller-Hinton Broth (MHB; Oxoid), at 28 °C and 240 rpm. Bacterial growth was monitored and adjusted to 0.135 optical density at 600 nm (OD600) in a spectrophotometer (Genesys 10uv Scanning, Thermo Scientific). […] For flow cytometry experiments, bacteria were cultured in King’s B broth medium for 20 h, at 25 °C in a shaking incubator at 200 rpm.
(§2) The MIC and MBC were determined for peptides discriminated by the antibiograms as the most efficient, i.e., RW-BP100, CA-M, 3.1, and BP100. […] In this assay, additional concentrations to those used in the antibiogram analysis were included in order to obtain more accurate results. Sterile 96-well microplates were filled with 150 µL of peptide and bacterial solution in a 1:1 ratio, leading to final concentrations of peptides equal to 0.25, 0.75, 1.6, 3.4, 6.2, 10, 25, 50, and 100 µM. As negative control a bacterial-free solution and sterile distilled water was used, and positive control with chlortetracycline to a final concentration of 25 µM was used. Microplates were incubated at 25 °C and 130 rpm and OD600 was measured hourly for 24 h, with 30 s vigorous shaking before each reading. The experiment was repeated three distinct times with different fresh bacterial colonies.
(§3) Data from bacterial growth curves were analyzed to determine IC50 values with two-way ANOVA and Tukey tests (p < 0.05). MIC values were set as the peptide lowest concentrations that reduced bacterial growth.

[2] = system: Nicotiana tabacum cv. 'Havana' leaves; assay: AMP toxicity on tobacco leaves by syringe infiltration; format: in vivo; details: AMP alone in PBS at assay concentration
Method: To assess the HR, the Psa reference CFBP7286 strain was used. CFBP7286 cells were more exposed to the AMPs (doses and periods of exposure) than those used on the flow cytometry and the CFUs analyzes; from individual effects of AMPs on the reference CFBP7286 strain, the HR was assessed. Tobacco plants (Nicotiana tabacum cv. ‘Havana’) were sown in plant pots of 1 L in peat substrate (Siro, Mira, Portugal). Plants were grown for 8 weeks in a growth chamber with a controlled temperature at 25 °C ± 2 and relative humidity at 50% ± 5. Psa infiltration on tobacco plants for HR was performed according to Stefani and Loreti using a syringe tip to inoculate 1 mL of bacterial suspension after 1 h of AMPs treatments in the abaxial side of the leaves. PBS was used as a negative control and Psa CFBP7286 at the same concentration and diluted in PBS for 1 h as the treatment was infiltrated as a positive control for HR. The AMPs at the assay concentration were prepared in PBS and infiltrated, also as a negative control of the treatment. The development of HR was monitored within 24 and 48 h post infiltration (hpi). Three tobacco plants, and three leaves of each plant, were used in three independent experiments.

[3] = system: Psa strains; assay: Minimal bactericidal concentration (MBC), subculture on peptide-free King's B agar; format: cell-based, Pseudomonas syringae pv. actinidiae
Method: as §1, §2, §3

[4] = system: Psa CFBP7286; format: cell-based; details: 1 h treatment; alone or combined with 3.1 at equal concentrations
Method: The number of viable bacteria cells of CFBP7286 strains was determined by CFU counting, using bacteria inocula exposed to the same AMPs (doses and periods of exposure) than those used on the flow cytometry assays. In the individual evaluation of BP100, CA-M, and 3.1 AMPs as well as the mixtures BP100:3.1 and CA-M:3.1, CFUs were determined by the drop method in the plate. All treated samples and controls were subjected to 10 serial ^1/10 dilutions in sterile PBS and 10 μL of each dilution was cultured on King’s B agar (1.5%) plates, with further incubation at 25 °C for 24 h. After the incubation time, plates were recorded in a GelDoc (BioRad) and colonies were counted for the last dilution with bacterial growth. This experiment was performed in three biological and temporal replicates.

[5] = system: Psa strains; assay: IC50 from bacterial growth curves; format: cell-based, Pseudomonas syringae pv. actinidiae; details: based on bacterial growth curves, read-out: half-maximal inhibitory concentration (IC50)
Method: as §2, §3

[6] = system: tobacco leaf; details: cited from earlier work
Source text: The assays on tobacco plants are often used to analyze the toxicity effects of AMPs [[29],[30],[49],[5 ...

[7] = system: Pseudomonas syringae pv. actinidiae (Psa) strains; assay: Antibiogram assay (peptide drop on inoculated MH agar); format: cell-based; parameters: key: “ns” means the strain was not susceptible to the peptide in the tested concentration range; details: 1 µL drop on MH agar, 25 °C, 24 h, tested 0.4-200 µM
Method: All strains were obtained from stocks preserved at –80 °C and cultured in King’s B medium (protease peptone, 20.0 g; anhydrous K2HPO4, 1.5 g; glycerol, 10.0 mL; MgSO4·7H2O, 1.5 g; agar, […]; distilled water up to 1.0 L). Individual colonies of each strain were selected and re-streaked two times to ensure purity. Psa strains were isolated in different infected kiwifruit orchards between 2013 and 2017. CFBP7286 was used as Psa biovar 3 reference strain. For the antibiogram assays, pure colonies of all bacterial strains were grown overnight in Muller-Hinton Broth (MHB; Oxoid), at 28 °C and 240 rpm. Bacterial growth was monitored and adjusted to 0.135 optical density at 600 nm (OD600) in a spectrophotometer (Genesys 10uv Scanning, Thermo Scientific). […]
All six AMPs, BP100, RW-BP100, CA-M, D4E1, 3.1, and Dhvar-5 (Table 3), were evaluated by antibiogram assays to determine the most promising peptides against the selected bacterial strains. […]
For the pre-incubation, bacterial cultures were inoculated in Muller-Hinton (MH; Oxoid) agar (1.5%) medium by spreading 1 mL of each culture, removing the excess after 1 min and allowing drying for 15 min. […] After the incubation period, plate images were acquired on Gel Doc (BioRad, Hercules, CA, USA) and AMP activity was determined by no growth on drop site for each concentration. […]

[8] = reference strain CFBP7286, MHB, 96-well, 25 °C, 130 rpm, OD600 hourly for 24 h, repeated three times
[9] = strain AL114b, MHB, 96-well, 25 °C, 130 rpm, OD600 hourly for 24 h, repeated three times
[10] = strain AL115, MHB, 96-well, 25 °C, 130 rpm, OD600 hourly for 24 h, repeated three times
[11] = strain Fv62, MHB, 96-well, 25 °C, 130 rpm, OD600 hourly for 24 h, repeated three times
[12] = strain P85, MHB, 96-well, 25 °C, 130 rpm, OD600 hourly for 24 h, repeated three times
[13] = strain VN29, MHB, 96-well, 25 °C, 130 rpm, OD600 hourly for 24 h, repeated three times
[14] = strain VV10, MHB, 96-well, 25 °C, 130 rpm, OD600 hourly for 24 h, repeated three times
[15] = strain VV112, MHB, 96-well, 25 °C, 130 rpm, OD600 hourly for 24 h, repeated three times
[16] = reference strain CFBP7286, subculture on peptide-free King's B agar, 25 °C, 24 h
[17] = strain AL114b, subculture on peptide-free King's B agar, 25 °C, 24 h
[18] = strain AL115, subculture on peptide-free King's B agar, 25 °C, 24 h
[19] = strain Fv62, subculture on peptide-free King's B agar, 25 °C, 24 h
[20] = strain P85, subculture on peptide-free King's B agar, 25 °C, 24 h
[21] = strain VN29, subculture on peptide-free King's B agar, 25 °C, 24 h
[22] = strain VV10, subculture on peptide-free King's B agar, 25 °C, 24 h
[23] = strain VV112, subculture on peptide-free King's B agar, 25 °C, 24 h
[24] = all strains (for CA-M except P85 and VN29), repeated three times
[25] = summary over the eight Psa strains (abstract)

Compound | MIC [1, 8] [µM] | MIC [1, 9] [µM] | MIC [1, 10] [µM] | MIC [1, 11] [µM] | MIC [1, 12] [µM] | MIC [1, 13] [µM] | MIC [1, 14] [µM] | MIC [1, 15] [µM] | AMP toxicity on tobacco plants [2] | MBC [3, 16] [µM] | MBC [3, 17] [µM] | MBC [3, 18] [µM] | MBC [3, 19] [µM] | MBC [3, 20] [µM] | MBC [3, 21] [µM] | MBC [3, 22] [µM] | MBC [3, 23] [µM] | IC50 [5, 24] [µM] | MBC [3, 25] [µM] | further results
KKLLKWLLKLL-NH2 [3.1] | 10 | 25 | 10 | 10 | 25 | 10 | 10 | 10 | absence/low toxicity | 25 | 25 | 10 | 25 | 25 | 25 | 25 | 25 |  |  | 
CC[C@H](C)[C@H](NC(=O)[C@H](CCCCN)NC(=O)[C@H](CCCCN)NC(=O)[C@H](Cc1ccccc1)NC(=O)[C@H](CC(C)C)NC(=O)[C@H](CCCCN)NC(=O)[C@@H](N)CCCCN)C(=O)N[C@@H](CC(C)C)C(=O)N[C@@H](CCCCN)C(=O)N[C@@H](Cc1ccc(O)cc1)C(=O)N[C@@H](CC(C)C)C(N)=O [BP100, reference compound] | 3.4 (≈ 4.83 µg/mL) | 3.4 (≈ 4.83 µg/mL) | 3.4 (≈ 4.83 µg/mL) | 3.4 (≈ 4.83 µg/mL) | 3.4 (≈ 4.83 µg/mL) | 3.4 (≈ 4.83 µg/mL) | 3.4 (≈ 4.83 µg/mL) | 3.4 (≈ 4.83 µg/mL) | absence/low toxicity | 3.4 (≈ 4.83 µg/mL) | 3.4 (≈ 4.83 µg/mL) | 3.4 (≈ 4.83 µg/mL) | 10 (≈ 14.2 µg/mL) | 6.2 (≈ 8.81 µg/mL) | 6.2 (≈ 8.81 µg/mL) | 6.2 (≈ 8.81 µg/mL) | 10 (≈ 14.2 µg/mL) | ~2 | 3.4 to 10 | lethal concentration of BP100 by CFUs [4]: 2 µM; tobacco leaf lesions ([6]; at 50 µM): 4 mm; tobacco leaf lesions ([6]; at 250 µM): 12.5 mm
KWKLFKKIGAVLKVL-NH2 [CA-M] | 3.4 | 3.4 | 3.4 | 3.4 | 6.2 | 6.2 | 3.4 | 3.4 | absence/low toxicity | 6.2 | 10 | 6.2 | 10 | 6.2 | 6.2 | 6.2 | 6.2 | ~2 | 3.4 to 10 | MIC [1, 25]: 3.4 to 6.2 µM; IC50 ([5]; strain P85): ~4 µM; IC50 ([5]; strain VN29): ~4 µM
LLLFLLKKRKKRKY-NH2 [Dhvar-5] |  |  |  |  |  |  |  |  |  |  |  |  |  |  |  |  |  |  |  | antibiogram inhibitory concentration ([7]; strain VC104b): ns; antibiogram inhibitory concentration ([7]; strain VN29): ns
RRLFRRILRWL-NH2 [RW-BP100] | 3.4 | 6.2 | 6.2 | 6.2 | 6.2 | 6.2 | 6.2 | 6.2 |  | 6.2 | 6.2 | 6.2 | 6.2 | 6.2 | 6.2 | 6.2 | 6.2 |  |  | 
